According to patent US20130315895A1, “COMBINATION OF A cMET INHIBITOR AND AN ANTIBODY TO HGF AND/OR cMET” (priority 2010, published 2013):

Legend:
Human U87MG Glioblastoma [1] = assay: In vivo evaluation of Compounds 3 and 45, alone and in combination with anti-HGF mAb HuL2G7, in human U87MG glioblastoma implanted nude mice (tumor growth delay method); details: for induction of regressions: monotherapy p.o. qd x 14; for tumor growth delays / tumor growth delays (% of median TTE of control): monotherapy p.o. qd x 14 (Table 4: Cmpd 45 136.05 mg/kg, Cmpd 3 200 mg/kg)
Experimental: B. In Vivo Evaluation of Compounds 3 and 45, Alone and in Combination with Anti-HGF mAb HuL2G7, in Human U87MG Glioblastoma Implanted Nude Mice
(§1) Female athymic nude mice (Harlan), 9 weeks of age, were fed ad libitum water (reverse osmosis, 1 ppm Cl2) and an irradiated standard rodent diet (NIH31 Modified and Irradiated) consisting of: 18% protein, 5% fat, and 5% fiber. Mice were housed on irradiated Enrich-O'Cobs™ laboratory animal bedding in static microisolators on a 12-hour light cycle at 21-22° C. (70-72° F.) and 40-60% humidity.
(§2) The human U87MG glioblastoma utilized in the present study was maintained in serial s.c. transplantation in nude mice. Mice were implanted subcutaneously in the flank with a 1 mm^3 fragment of U87MG glioblastoma. Tumors were monitored as the neoplasms reached the desired size, approximately 190 mm^3. At 12 days, when the tumors attained a size between 172-256 mm^3 in calculated tumor volume, the animals were pair-matched into various treatment groups (the mean tumor volume in each group was 190-198 mm^3). Estimated tumor volume was calculated using the formula:
(§3) where w=width and l=length in mm of a U87MG glioblastoma.
Compounds 3 and 45 were prepared by as described above. Compounds 3 and 45 were then prepared for administration as suspensions in 30% Captisol/100 mM citrate at pH 3.0. HuL2G7 was then provided as a 20.7 mg/ml stock solution in normal saline. The stock solution was diluted with normal saline to provide the formulation for injection.
(§4) The concentration of each compound was such that the desired dose was delivered in a volume of 5 μl per gram body weight. Dosing solutions of Compounds 3 and 45 were prepared fresh weekly and stored under refrigeration. Dosing solutions of HuL2G7 were prepared fresh prior to each treatment and were stored under refrigeration along with the stock solution.
On Day 1, animals were pairmatched by tumor size into 8 groups of 10 mice each. […] HuL2G7 was given i.v. at 10 mg/kg qwk×2. Treatment with all agents, either alone or in combination, was initiated on Day 1. Mice treated with monotherapy received the vehicle used for the other agent. There was a vehicle control group which received the Captisol/citrate, pH 3.0 vehicle p.o. qd×14 as well as saline i.v. qwk×2. Treatment groups were compared for statistical significance to the vehicle control. Groups that received the combinations were compared for statistical significance to the monotherapy groups that received the two agents used in combination. The experiment was terminated on Day 43.
(§5) The tumor growth delay (TGD) method was used in this study; treatment-effected median increases in time to endpoint (TTE) of various treatment groups were compared to untreated and vehicle controls. In the TGD method, each animal was euthanized as a cancer death when its U87MG glioblastoma reached a size of 2000 mm^3. TTE values were determined for all groups based on the calculated day reaching endpoint as given by the formula: […]
(§6) where TTE is expressed in days, endpoint volume is in mm^3, b is the intercept, and m is the slope of the line obtained by linear regression of a log-transformed tumor growth data set. The data set is comprised of the first observation that exceeded the study endpoint volume and the three consecutive observations that immediately preceded the attainment of the endpoint volume. The calculated TTE is usually less than the day on which an animal is euthanized for tumor size. […] Animals classified as treatment related deaths (TR) or non-treatment-related metastatic deaths (NTRm) are assigned a TTE value equal to the day of death. Animals classified as non-treatment-related deaths (NTRu or NTRa) are excluded from TTE calculations.
Treatment efficacy was determined from tumor growth delay (TGD), which is defined as the increase in the median TTE for a treatment group compared to the control group:
expressed in days, or as a percentage of the median TTE of the control group: […]

Human U87MG Glioblastoma [2] = assay: In vivo evaluation of Compound 45, alone and in combination with anti-HGF mAb HuL2G7, in human U87MG glioblastoma implanted nude mice (tumor growth delay method)
Experimental: A. In Vivo Evaluation of Compound 45, Alone and in Combination with Anti-HGF mAb HuL2G7, in Human U87MG Glioblastoma Implanted Nude Mice
as §1, with “10” for “9”, “[…])” for “Cl2)”, “Enrich-o′-Cobs™” for “Enrich-O'Cobs™”
as §2, with “glioblastoma” for “glioblastoma utilized in the present study”, “monitored twice weekly then subsequently daily” for “monitored”, “13” for “12”, “126-288” for “172-256”, “184-192” for “190-198”
as §3
Compound 45 was produced as described above. Compound 45 was then prepared for administration in 30% Captisol/25 mM citrate at pH 3.0. HuL2G7 was then provided as a 19.0 mg/ml stock solution in normal saline. The stock solution was diluted with normal saline to provide the formulation for injection.
as §4, with “Compound” for “Compounds 3 and”, “at room temperature.” for “under refrigeration.”
On Day 1, animals were pairmatched by tumor size into 16 groups of 10 mice each. Compound 45 was given p.o. at 10.8, 32.4 and 108 mg/kg qd×14. HuL2G7 was given i.v. at 1, 3 and 10 mg/kg qwk×2. Treatment with both agents either alone or in combination was initiated on Day 1. Mice treated with monotherapy received the vehicle used for the other agent. There was a vehicle control group which received the Captisol/citrate, pH 3.0 vehicle p.o. qd×14 as well as saline i.v. qwk×2. Treatment groups were compared for statistical significance to the vehicle control. Groups that received the combination were compared for statistical significance to the monotherapy groups that received the same dose of the two agents used in combination. The experiment was terminated on Day 44.
as §5
as §6, with “calculations. Treatment efficacy was determined from tumor growth delay (TGD), which is defined as the increase in the median TTE for a treatment group compared to the control group: […]” for “calculations.”

[3] = monotherapy, text summary over doses (Compound 45 daily for 14 days; HuL2G7 i.v. qwk x 2)
[4] = monotherapy: Compound 45 10.8 mg/kg p.o. qd x 14 (HuL2G7 0)
[5] = monotherapy: Compound 45 32.4 mg/kg p.o. qd x 14 (HuL2G7 0)
[6] = monotherapy: Compound 45 108 mg/kg p.o. qd x 14 (HuL2G7 0)

| melting point [°C] | Structure (SMILES) | induction of regressions (Human U87MG Glioblastoma [1]) | tumor growth delays (Human U87MG Glioblastoma [1]) [days] | tumor growth delays (% of median TTE of control) (Human U87MG Glioblastoma [1]) | induction of regressions (Human U87MG Glioblastoma [2]; monotherapy) | tumor growth delays (Human U87MG Glioblastoma [2]; [3]) [days] | tumor growth delays (% of median TTE of control) (Human U87MG Glioblastoma [2]; [3]) | Regressions (CR/PR per 10 mice) (Human U87MG Glioblastoma [2]; [4]) | Tumor Growth Delay (TGD) (Human U87MG Glioblastoma [2]; [4]) [days] | Regressions (CR/PR per 10 mice) (Human U87MG Glioblastoma [2]; [5]) | Tumor Growth Delay (TGD) (Human U87MG Glioblastoma [2]; [5]) [days] | Regressions (CR/PR per 10 mice) (Human U87MG Glioblastoma [2]; [6]) | Tumor Growth Delay (TGD) (Human U87MG Glioblastoma [2]; [6]) [days] |
| --- | --- | --- | --- | --- | --- | --- | --- | --- | --- | --- | --- | --- | --- |
| – | O=C(Nc1cn2nc(Sc3nnc4ccccn34)ccc2n1)C1CC1 [Compound 3, N-(6-([1,2,4]triazolo[4,3-a]pyridin-3-ylthio)imidazo[1,2-b]pyridazin-2-yl)cyclopropanecarboxamide] | Neither of these agents was able to induce regressions | 3 | ca. 23% | – | – | – | – | – | – | – | – | – |
| – | Cn1cc(-c2ccc3nnc(C(F)(F)c4ccc5nc(NC(=O)C6CC6)cn5n4)n3c2)cn1 [Compound 45, N-(6-(difluoro(6-(1-methyl-1H-pyrazol-4-yl)-[1,2,4]triazolo[4,3-a]pyridin-3-yl)methyl)imidazo[1,2-b]pyridazin-2-yl)cyclopropanecarboxamide] | Neither of these agents was able to induce regressions | 3 | ca. 23% | Neither agent was able to induce regressions | 3 to 4 | ca. 30% | 0/10 | 0 | 0/10 | 3.9 | 0/10 | 3.1 |
| 250.2 to 251.6 | Cn1cc(-c2ccc3nnn(Cc4ccc5nc(NC(=O)C6CC6)cn5n4)c3c2)cn1 [Compound 13, N-(6-((6-(1-methyl-1H-pyrazol-4-yl)-1H-benzo[d][1,2,3]triazol-1-yl)methyl)imidazo[1,2-b]pyridazin-2-yl)cyclopropanecarboxamide] | – | – | – | – | – | – | – | – | – | – | – | – |
